Measured values: US7767815B2, “Fused tricyclic mGluR1 antagonists as therapeutic agents” (Schering Corporation, priority 2005, dated 2010)
pIC50: −log10 of the molar value.

The compounds below were run against T1, hmGluR1 receptor (Homo sapiens, UniProt Q13255) (assay: mGluR1 IC50 determination, FLIPR intracellular calcium mobilization against Quisqualate). Settings: CHO cell line stably expressing hmGluR1; against Quisqualate 1 μM (EC80); compounds added 10 minutes before; read-out: mGluR1 IC50.
T1 construct: expressed in transfected cells; host or cells: CHO
T1 sequence (Q13255 19-1194): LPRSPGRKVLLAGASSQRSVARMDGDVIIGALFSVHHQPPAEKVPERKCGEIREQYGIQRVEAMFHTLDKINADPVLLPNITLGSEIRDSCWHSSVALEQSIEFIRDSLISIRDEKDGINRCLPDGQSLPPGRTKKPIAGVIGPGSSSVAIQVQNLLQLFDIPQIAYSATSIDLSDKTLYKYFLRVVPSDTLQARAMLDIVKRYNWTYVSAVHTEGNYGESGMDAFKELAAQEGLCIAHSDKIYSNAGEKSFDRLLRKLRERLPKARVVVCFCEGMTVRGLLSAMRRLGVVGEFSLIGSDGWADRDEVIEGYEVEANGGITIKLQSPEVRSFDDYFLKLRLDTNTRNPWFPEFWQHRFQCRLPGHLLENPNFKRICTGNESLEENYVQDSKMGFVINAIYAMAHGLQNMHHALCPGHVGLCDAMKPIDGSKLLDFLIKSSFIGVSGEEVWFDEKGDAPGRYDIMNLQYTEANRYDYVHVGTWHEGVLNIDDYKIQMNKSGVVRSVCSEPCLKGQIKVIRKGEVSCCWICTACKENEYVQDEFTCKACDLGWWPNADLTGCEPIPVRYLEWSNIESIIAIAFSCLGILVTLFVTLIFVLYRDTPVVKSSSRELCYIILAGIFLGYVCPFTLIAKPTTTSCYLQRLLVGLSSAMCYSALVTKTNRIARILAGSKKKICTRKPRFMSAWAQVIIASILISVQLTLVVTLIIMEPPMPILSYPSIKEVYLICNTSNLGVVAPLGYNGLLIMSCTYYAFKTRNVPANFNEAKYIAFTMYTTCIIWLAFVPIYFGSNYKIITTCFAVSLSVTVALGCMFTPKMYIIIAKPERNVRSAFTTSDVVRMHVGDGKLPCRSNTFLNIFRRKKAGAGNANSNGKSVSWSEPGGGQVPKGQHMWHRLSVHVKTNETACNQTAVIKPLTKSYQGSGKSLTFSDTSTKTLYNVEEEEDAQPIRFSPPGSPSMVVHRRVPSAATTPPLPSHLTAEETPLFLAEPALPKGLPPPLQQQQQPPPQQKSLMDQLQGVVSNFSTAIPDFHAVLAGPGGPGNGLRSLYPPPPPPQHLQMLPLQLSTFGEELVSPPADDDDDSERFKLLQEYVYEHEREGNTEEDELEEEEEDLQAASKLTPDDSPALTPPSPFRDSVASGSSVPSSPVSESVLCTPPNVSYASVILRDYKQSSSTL
Type: cell-based
Method: A CHO cell line stably expressing hmGluR1 receptor was established. One day prior to assay, cells were split in growth media at concentration of 50,000 cells/well in a volume of 100 μl and seeded into black clear-bottom 96-well plates. After two to six hours, when cells were well attached to the plate, growth medium was replaced with assay medium (100 μL) consisting of DMEM high glucose, supplemented with GPT (1 U/mL) and sodium pyruvate, 1 mM. Following overnight incubation, medium was discarded and cells were loaded for 2 hours with dye from the Calcium 3 Assay Reagent Kit (Molecular Devices, # R8033), prepared according to manufacturers' instructions. […] Test compounds were added 10 minutes before Quisqualate.

pIC50	Compound
8.47	COc1ccnc2sc3c(=O)n(-c4ccc(Cl)cc4)ccc3c12 [16B]
8.41	COc1ccnc2sc3c(=O)n(-c4ccc(C)cc4)ccc3c12 [16C]
8.32	COc1ccnc2sc3c(=O)n(-c4ccc(Br)cc4)ccc3c12 [16E]
8.01	COc1ccc(-n2ccc3c(sc4nccc(NC5CC5)c43)c2=O)cc1F [19AV]

Same assay, conditions: CHO cell line stably expressing hmGluR1; against Quisqualate 1 μM (EC80); compounds added 10 minutes before; read-out: mGluR1 IC50 rating

Compound	pIC50
CN(C)c1ccnc2sc3c(=O)n(-c4ccc(O)cc4)ccc3c12 [9H]	> 7.70
COc1ccnc2sc3c(=O)n(-c4ccc(Cl)cc4)ccc3c12 [16B]	> 7.70
COc1ccnc2sc3c(=O)n(-c4ccc(C)cc4)ccc3c12 [16C]	> 7.70
COc1ccnc2sc3c(=O)n(-c4ccc(Br)cc4)ccc3c12 [16E]	> 7.70
COc1ccnc2sc3c(=O)n(-c4ccc5ncsc5c4)ccc3c12 [16F]	7.00 to 7.70
COc1ccnc2sc3c(=O)n(-c4ccc5scnc5c4)ccc3c12 [16G]	> 7.70
COc1ccnc2sc3c(=O)n(-c4ccc(F)cc4)ccc3c12 [16H]	> 7.70
COc1ccc(-n2ccc3c(sc4nccc(OC)c43)c2=O)cc1F [16I]	> 7.70
COc1ccnc2sc3c(=O)n(-c4ccccc4)ccc3c12 [16M]	> 7.70
COc1ccnc2sc3c(=O)n(-c4ccc5c(c4)OCO5)ccc3c12 [16O]	> 7.70
COc1ccnc2sc3c(=O)n(-c4ccc5c(c4)OCCO5)ccc3c12 [16P]	7.00 to 7.70
COc1ccnc2sc3c(=O)n(-c4ccc5occc5c4)ccc3c12 [16Q]	> 7.70
COc1ccnc2sc3c(=O)n(-c4cccc(Cl)c4)ccc3c12 [16R]	> 7.70
COc1ccnc2sc3c(=O)n(-c4cccc(C)c4)ccc3c12 [16T]	> 7.70
COc1ccnc2sc3c(=O)n(-c4ccccc4Cl)ccc3c12 [16U]	7.00 to 7.70
COc1ccnc2sc3c(=O)n(-c4ccc(C#N)cc4)ccc3c12 [16X]	7.00 to 7.70
O=c1c2sc3nccc(O)c3c2ccn1-c1ccc(Cl)cc1 [17B]	6.00 to 7.00
Cc1ccc(-n2ccc3c(sc4nccc(O)c43)c2=O)cc1 [17C]	6.00 to 7.00

Now from value to compound:

pIC50	Compound
7.00 to 7.70	COc1ccc(-n2ccc3c(sc4nccc(NCCCCO)c43)c2=O)cc1 [19AA]
7.00 to 7.70	Cc1ccc(-n2ccc3c(sc4nccc(N)c43)c2=O)cc1 [19AC]
> 7.70	C#CCNc1ccnc2sc3c(=O)n(-c4ccc(Cl)cc4)ccc3c12 [19AE]
> 7.70	C#CCNc1ccnc2sc3c(=O)n(-c4ccc(C)cc4)ccc3c12 [19AG]
7.00 to 7.70	COc1ccc(-n2ccc3c(sc4nccc(NCCCCCO)c43)c2=O)cc1 [19AH]
7.00 to 7.70	CCNc1ccnc2sc3c(=O)n(-c4ccc(F)cc4)ccc3c12 [19AL]
7.00 to 7.70	O=c1c2sc3nccc(NC4CC4)c3c2ccn1-c1ccc(F)cc1 [19AM]
7.00 to 7.70	C#CCNc1ccnc2sc3c(=O)n(-c4ccc(F)cc4)ccc3c12 [19AN]
6.00 to 7.00	C#CCNc1ccnc2sc3c(=O)n(-c4ccc(OC)c(F)c4)ccc3c12 [19AO]
7.00 to 7.70	CCNc1ccnc2sc3c(=O)n(-c4ccc5scnc5c4)ccc3c12 [19AQ]
7.00 to 7.70	O=c1c2sc3nccc(NC4CC4)c3c2ccn1-c1ccc2scnc2c1 [19AR]
> 7.70	CCNc1ccnc2sc3c(=O)n(-c4ccc(OC)c(F)c4)ccc3c12 [19AU]
> 7.70	COc1ccc(-n2ccc3c(sc4nccc(NC5CC5)c43)c2=O)cc1F [19AV]
> 7.70	C#CCNc1ccnc2sc3c(=O)n(-c4ccc(Br)cc4)ccc3c12 [19AZ]
7.00 to 7.70	CCNc1ccnc2sc3c(=O)n(-c4ccc(C#N)cc4)ccc3c12 [19BB]
7.00 to 7.70	N#Cc1ccc(-n2ccc3c(sc4nccc(NC5CC5)c43)c2=O)cc1 [19BC]
7.00 to 7.70	CCNc1ccnc2sc3c(=O)n(-c4ccc(OC)cc4F)ccc3c12 [19BG]
7.00 to 7.70	COc1ccc(-n2ccc3c(sc4nccc(NC5CC5)c43)c2=O)c(F)c1 [19BH]

pIC50	Compound
7.00 to 7.70	COCCNc1ccnc2sc3c(=O)n(-c4ccc(C)cc4)ccc3c12 [19C]
7.00 to 7.70	C[C@@H](O)CNc1ccnc2sc3c(=O)n(-c4ccc(Cl)cc4)ccc3c12 [19E]
> 7.70	O=c1c2sc3nccc(NCCO)c3c2ccn1-c1ccc(Cl)cc1 [19F]
7.00 to 7.70	COCCNc1ccnc2sc3c(=O)n(-c4ccc(Cl)cc4)ccc3c12 [19G]
7.00 to 7.70	COCCCNc1ccnc2sc3c(=O)n(-c4ccc(Cl)cc4)ccc3c12 [19H]
7.00 to 7.70	O=c1c2sc3nccc(NCC(F)(F)F)c3c2ccn1-c1ccc(Cl)cc1 [19I]
< 6.00	COCCNc1ccnc2sc3c(=O)n(-c4ccc(O)cc4)ccc3c12 [19J]
7.00 to 7.70	Cc1ccc(-n2ccc3c(sc4nccc(NCCO)c43)c2=O)cc1 [19L]
7.00 to 7.70	Cc1ccc(-n2ccc3c(sc4nccc(NC[C@@H](C)O)c43)c2=O)cc1 [19M]
7.00 to 7.70	Cc1ccc(-n2ccc3c(sc4nccc(NCC(F)(F)F)c43)c2=O)cc1 [19R]
7.00 to 7.70	COc1ccc(-n2ccc3c(sc4nccc(NCC(F)(F)F)c43)c2=O)cc1 [19S]
> 7.70	COc1ccc(-n2ccc3c(sc4nccc(N(C)N)c43)c2=O)cc1 [19U]
7.00 to 7.70	COCCCNc1ccnc2sc3c(=O)n(-c4ccc(OC)cc4)ccc3c12 [19W]
7.00 to 7.70	C#CCNc1ccnc2sc3c(=O)n(-c4ccc(OC)cc4)ccc3c12 [19X]
7.00 to 7.70	COc1ccc(-n2ccc3c(sc4nccc(NCCCO)c43)c2=O)cc1 [19Y]
> 7.70	COc1ncnc2sc3c(=O)n(-c4ccc(C)cc4)ccc3c12 [23A]
6.00 to 7.00	COc1ccc(-n2ccc3c(sc4ncnc(OC)c43)c2=O)cc1 [23B]
7.00 to 7.70	COc1ncnc2sc3c(=O)n(-c4ccc(Cl)cc4)ccc3c12 [23C]
